Values of other authors as cited in patent US6303141A, “Transdermally administrable medicament with ACE inhibitors” (Hexal AG, priority 1995, dated 2001).

Conditions: in vivo

SMILES	oral bioavailability
C[C@H](CS)C(=O)N1CCC[C@H]1C(=O)O [captopril]	approximately 70%
CCOC(=O)[C@H](CCc1ccccc1)N[C@H]1CCc2ccccc2N(CC(=O)O)C1=O [benazepril]	28%
